Measured values reported in patent EP1655296A1, “Thrombin inhibitors” (Graffinity Pharmaceuticals AG, priority 2004, dated 2006).
pKi: −log10 of the molar value.

Biological target: thrombin (Homo sapiens, UniProt P00734)
Assay: Ki determinations thrombin (fluorogenic substrate Tosyl-GPR-AMC)
Assay type: biochemical
Settings: 20 °C; Tosyl-GPR-AMC 20 µM; thrombin concentration of 100 pM; HBS pH 7.4
Procedure: The Ki determinations are carried out at 20 °C with the fluorogenic substrate Tosyl-GPR-AMC (Bachem, Heidelberg, Germany; λexc = 370 nm, λem = 450 nm) at a thrombin concentration of 100 pM in HBS pH 7.4. The substrate is added to a final concentration of 20 µM in a total assay volume of 100 µl. The enzymatic reaction is started by addition of substrate. The emission at 450 nm is monitored in 1 minute intervals for 10 minutes using a polarstar reader (BMG Laboratories, Offenburg, Germany). Initial velocities of the control and the inhibited reactions (vo and vi) are estimated in FU/min at different compound concentrations. The inhibition constants are calculated using the Michaelis-Menten equation for competitive inhibition.

With `Fc1c(NCCC2CCCCN2)ncc(Cl)c1CCNCc1n[nH]c2ccc(Cl)cc12` (stereo not shown) [example 1] the pKi was over 6.00.
